Assays:
[1] = test system: OX1; settings: read-out: IC50 OX1; cited from earlier work
[2] = test system: rats; assay: Conditioned place preference; format: in vivo, Sprague-Dawley rats
[3] = 2-methylbenzoxazole undergoes ring opening under acidic conditions; cited from earlier work
[4] = molecular target: T1, OX2 receptor (Homo sapiens, UniProt O43614); assay: OX2 calcium mobilization functional assay; format: cell-based
T1 sequence (O43614 1-444): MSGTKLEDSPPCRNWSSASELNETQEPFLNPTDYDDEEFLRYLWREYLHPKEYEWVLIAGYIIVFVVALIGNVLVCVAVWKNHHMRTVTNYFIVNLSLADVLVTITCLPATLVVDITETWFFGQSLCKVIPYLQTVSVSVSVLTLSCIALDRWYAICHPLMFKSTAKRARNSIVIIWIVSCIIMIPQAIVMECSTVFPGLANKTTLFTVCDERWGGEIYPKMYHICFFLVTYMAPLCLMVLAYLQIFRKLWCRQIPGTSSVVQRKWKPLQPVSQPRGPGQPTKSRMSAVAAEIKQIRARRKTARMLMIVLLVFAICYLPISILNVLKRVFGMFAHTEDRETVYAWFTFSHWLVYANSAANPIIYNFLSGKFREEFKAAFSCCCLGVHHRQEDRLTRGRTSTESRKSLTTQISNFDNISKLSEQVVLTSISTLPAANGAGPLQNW

[5] = molecular target: T2, orexin 1 (OX1) receptor (Homo sapiens, UniProt O43613); assay: OX1 calcium mobilization functional assay; format: cell-based; settings: for OX2/OX1: ratio of Ke values
T2 sequence (O43613 1-425): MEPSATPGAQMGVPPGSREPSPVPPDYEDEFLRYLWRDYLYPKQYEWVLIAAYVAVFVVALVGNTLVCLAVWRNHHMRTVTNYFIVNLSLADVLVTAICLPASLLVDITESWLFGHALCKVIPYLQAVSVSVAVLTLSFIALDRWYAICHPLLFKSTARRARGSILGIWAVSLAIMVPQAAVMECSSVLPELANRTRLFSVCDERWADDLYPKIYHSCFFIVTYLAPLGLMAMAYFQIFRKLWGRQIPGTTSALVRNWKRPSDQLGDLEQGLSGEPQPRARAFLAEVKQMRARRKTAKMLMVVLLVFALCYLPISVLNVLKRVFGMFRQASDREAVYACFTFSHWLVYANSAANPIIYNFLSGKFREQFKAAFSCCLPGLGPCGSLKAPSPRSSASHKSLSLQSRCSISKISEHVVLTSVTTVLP

[6] = test system: rats; assay: Drug discrimination assay; format: in vivo; settings: 10 min pretreatment, data not shown

Structure (SMILES) | Kd [4] | OX2/OX1 [5] | other results
COc1ccc(C[C@H]2c3cc(OC)c(OC)cc3CCN2[C@@H](C(=O)NC(C)C)c2ccccc2)cc1OC [ACT-335827, reference compound] |  |  | IC50 [1]: 0.006 µM
COC(=O)[C@H]1[C@@H](OC(=O)c2ccccc2)C[C@@H]2CC[C@H]1N2C [Cocaine, reference compound] |  |  | CPP produced by drug alone ([2]; 10 mg/kg i.p., n=8-9): induced robust and significant CPP
Cc1nc2ccc(NC(=O)Nc3ccnc4cccnc34)cc2o1.Cl [Compound 1] |  |  | hydrolytic stability [3]: hydrolytic instability
CCOc1cc2c(cc1OC)CCN(CC(=O)NCc1ccccc1)C2Cc1ccc(OC)c(OC)c1 (stereo not drawn) [Compound 12, N-benzyl-2-{1-[(3,4-dimethoxyphenyl)methyl]-7-ethoxy-6-methoxy-1,2,3,4-tetrahydroisoquinolin-2-yl}acetamide] | > 10 µM | >333 | 
CCCOc1cc2c(cc1OC)CCN(CC(=O)NCc1ccccc1)C2Cc1ccc(OC)c(OC)c1 (stereo not drawn) [Compound 13, N-benzyl-2-{1-[(3,4-dimethoxyphenyl)methyl]-6-methoxy-7-propoxy-1,2,3,4-tetrahydroisoquinolin-2-.yl}acetamide] | > 10 µM | >578 | 
CCCCCCOc1cc2c(cc1OC)CCN(CC(=O)NCc1ccccc1)C2Cc1ccc(OC)c(OC)c1 (stereo not drawn) [Compound 15, N-benzyl-2-{1-[(3,4-dimethoxyphenyl)methyl]-7-(hexyloxy)-6-methoxy-1,2,3,4-tetrahydroisoquinolin-2-yl}acetamide] | > 10 µM | >31.7 | 
COc1ccc(CC2c3cc(OCC4CCCCC4)c(OC)cc3CCN2CC(=O)NCc2ccccc2)cc1OC (stereo not drawn) [Compound 17, N-benzyl-2-[7-(cyclohexylmethoxy)-1-[(3,4-dimethoxyphenyl)methyl]-6-methoxy-1,2,3,4-tetrahydroisoquinolin-2-yl]acetamide] |  |  | OX1 activity, bound stated ([5]; no activity up to the stated concentration): > 10 µM
COc1ccc(CC2c3cc(OCCCCOc4ccccc4)c(OC)cc3CCN2CC(=O)NCc2ccccc2)cc1OC (stereo not drawn) [Compound 24, N-benzyl-2-{1-[(3,4-dimethoxyphenyl)methyl]-6-methoxy-7-(4-phenoxybutoxy)-1,2,3,4-tetrahydroisoquinolin-2-yl}acetamide] | > 10 µM | >230 | 
CCCC(=O)Oc1cc2c(cc1OC)CCN(CC(=O)NCc1ccccc1)C2Cc1ccc(OC)c(OC)c1 (stereo not drawn) [Compound 25, 2-[(benzylcarbamoyl)methyl]-1-[(3,4-dimethoxyphenyl)methyl]-6-methoxy-1,2,3,4-tetrahydroisoquinolin-7-yl butanoate] | > 10 µM | >127 | 
COc1ccc(CC2c3cc(OS(=O)(=O)C(F)(F)F)c(OC)cc3CCN2CC(=O)NCc2ccccc2)cc1OC (stereo not drawn) [Compound 27, 2-[(benzylcarbamoyl)methyl]-1-[(3,4-dimethoxyphenyl)methyl]-6-methoxy-1,2,3,4-tetrahydroisoquinolin-7-yl trifluoromethanesulfonate] | > 10 µM | >1000 | 
COc1ccc(CC2c3cc(OCC(F)(F)F)c(OC)cc3CCN2CC(=O)NCc2ccccc2)cc1OC (stereo not drawn) [Compound 28, N-benzyl-2-{1-[(3,4-dimethoxyphenyl)methyl]-6-methoxy-7-(2,2,2-trifluoroethoxy)-1,2,3,4-tetrahydroisoquinolin-2-yl}acetamide] | > 10 µM | >1060 | selectivity over the OX2 receptor [5]: over 1000 fold
COc1ccc(CC2c3cc(OC)c(OC)cc3CCN2CC(=O)N(C)Cc2ccccc2)cc1OC (stereo not drawn) [Compound 39, N-benzyl-2-{1-[(3,4-dimethoxyphenyl)methyl]-6,7-dimethoxy-1,2,3,4-tetrahydroisoquinolin-2-yl}-N-methylacetamide] | > 10 µM | >4.8 | 
COc1ccc(CC2c3cc(OC)c(OC)cc3CCN2CC(=O)Nc2cccc3ccccc23)cc1OC (stereo not drawn) [Compound 41, 2-{1-[(3,4-dimethoxyphenyl)methyl]-6,7-dimethoxy-1,2,3,4-tetrahydroisoquinolin-2-yl}-N-(naphthalen-1-yl)acetamide] |  |  | fold less potent than the benzyl compound (OX1) ([5]; relative to compound 6): around 3.6 fold
COc1ccc(CC2c3cc(OC)c(OC)cc3CCN2CC(=O)N[C@@H](C)c2ccccc2)cc1OC (stereo partly drawn) [Compound 49, 2-{1-[(3,4-dimethoxyphenyl)methyl]-6,7-dimethoxy-1,2,3,4-tetrahydroisoquinolin-2-yl}-N-[(1S)-1-phenylethyl]acetamide] |  |  | OX2 activity in words ([4]; at 10 μM): inactive; OX1 activity in words ([5]; at 10 μM): inactive
COc1ccc(CC2c3cc(OC)c(OC)cc3CCN2CC(=O)NCc2ccccn2)cc1OC (stereo not drawn) [Compound 53, 2-{1-[(3,4-dimethoxyphenyl)methyl]-6,7-dimethoxy-1,2,3,4-tetrahydroisoquinolin-2-yl}-N-(pyridin-2-ylmethyl)acetamide] | > 10 µM | >38.3 | 
COc1ccc(CC2c3cc(OC)c(OC)cc3CCN2CC(=O)NCc2cccnc2)cc1OC (stereo not drawn) [Compound 54, 2-{1-[(3,4-dimethoxyphenyl)methyl]-6,7-dimethoxy-1,2,3,4-tetrahydroisoquinolin-2-yl}-N-(pyridin-3-ylmethyl)acetamide] | > 10 µM | >65.8 | 
COc1ccc(CC2c3cc(OC)c(OC)cc3CCN2CC(=O)NCc2ccc(N(C)C)cc2)cc1OC (stereo not drawn) [Compound 56, 2-{1-[(3,4-dimethoxyphenyl)methyl]-6,7-dimethoxy-1,2,3,4-tetrahydroisoquinolin-2-yl}-N-{[4-(dimethylamino)phenyl]methyl}acetamide] | > 10 µM | >3.1 | 
COc1ccc(CC2c3cc(OC)c(OC)cc3CCN2CC(=O)NCc2ccc(NC(C)=O)cc2)cc1OC (stereo not drawn) [Compound 57, 2-{1-[(3,4-dimethoxyphenyl)methyl]-6,7-dimethoxy-1,2,3,4-tetrahydroisoquinolin-2-yl}-N-[(4-acetamidophenyl)methyl]acetamide] |  |  | OX1 activity in words ([5]; no concentration given): total loss of OX1 activity
CCCCCC(=O)Nc1ccc(CNC(=O)CN2CCc3cc(OC)c(OC)cc3C2Cc2ccc(OC)c(OC)c2)cc1 (stereo not drawn) [Compound 58, N-{4-[(2-{1-[(3,4-dimethoxyphenyl)methyl]-6,7-dimethoxy-1,2,3,4-tetrahydroisoquinolin-2-yl}acetamido)methyl]phenyl}hexanamide] | 3.79 ± 0.67 µM | <0.4 | 
CCCOc1cc2c(cc1OC)CCN(CC(=O)NCc1ccccn1)C2Cc1ccc(OC)c(OC)c1 (stereo not drawn) [Compound 69, 2-{1-[(3,4-dimethoxyphenyl)methyl]-6-methoxy-7-propoxy-1,2,3,4-tetrahydroisoquinolin-2-yl}-N-(pyridin-2-ylmethyl)acetamide] | > 10 µM | >485 | 
CCCOc1cc2c(cc1OC)CCN(CC(=O)NCc1cccnc1)C2Cc1ccc(OC)c(OC)c1 (stereo not drawn) [Compound 70, 2-{1-[(3,4-dimethoxyphenyl)methyl]-6-methoxy-7-propoxy-1,2,3,4-tetrahydroisoquinolin-2-yl}-N-(pyridin-3-ylmethyl)acetamide] | > 10 µM | >239 | 
COc1ccc(CC2c3cc(OCC(F)(F)F)c(OC)cc3CCN2CC(=O)NCc2ccccn2)cc1OC (stereo not drawn) [Compound 71, 2-{1-[(3,4-dimethoxyphenyl)methyl]-6-methoxy-7-(2,2,2-trifluoroethoxy)-1,2,3,4-tetrahydroisoquinolin-2-yl}-N-(pyridin-2-ylmethyl)acetamide] | > 10 µM | >444 | 
COc1ccc(CC2c3cc(OCC(F)(F)F)c(OC)cc3CCN2CC(=O)NCc2cccnc2)cc1OC (stereo not drawn) [Compound 72, 2-{1-[(3,4-dimethoxyphenyl)methyl]-6-methoxy-7-(2,2,2-trifluoroethoxy)-1,2,3,4-tetrahydroisoquinolin-2-yl}-N-(pyridin-3-ylmethyl)acetamide] | > 10 µM | >1180 | behavioral activity in drug discrimination [6]: behaviorally active; effect on development of place preference induced by cocaine ([2]; 20 mg/kg i.p. 10 min before cocaine 10 mg/kg, P < 0.05 vs cocaine): significantly attenuated; CPP produced by compound alone ([2]; 20 mg/kg i.p., n=8-9): did not produce CPP or place aversion
CCOc1cc2c(cc1OC)CCN(CC(=O)NCc1ccccn1)C2Cc1ccc(OC)c(OC)c1 (stereo not drawn) [Compound 73, 2-{1-[(3,4-dimethoxyphenyl)methyl]-7-ethoxy-6-methoxy-1,2,3,4-tetrahydroisoquinolin-2-yl}-N-(pyridin-2-ylmethyl)acetamide] | > 10 µM | >114 | 
CCOc1cc2c(cc1OC)CCN(CC(=O)NCc1cccnc1)C2Cc1ccc(OC)c(OC)c1 (stereo not drawn) [Compound 74, 2-{1-[(3,4-dimethoxyphenyl)methyl]-7-ethoxy-6-methoxy-1,2,3,4-tetrahydroisoquinolin-2-yl}-N-(pyridin-3-ylmethyl)acetamide] | > 10 µM | >637 | 

Reference: article PMC3849818 (Journal of medicinal chemistry, 2013)
